Measured values from the supplement of paper PMC10307832.

Key:
Test in all cases: relative viability (nuclei count vs DMSO), 5 days (fraction); higher = more cells survive
Bortezomib + Crizotinib = compound: CC(C)C[C@H](NC(=O)[C@H](Cc1ccccc1)NC(=O)c1cnccn1)B(O)O [Bortezomib] + C[C@@H](Oc1cc(-c2cnn(C3CCNCC3)c2)cnc1N)c1c(Cl)ccc(F)c1Cl [Crizotinib] (partner 1 µM)
Summary of the method: (§1)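 Lung cancer cell lines in 1536-well plates got either a single drug or a fixed anchor-drug dose together with five library-drug doses (not always all listed) in √10 steps, by pin tool, on the day after seeding. Nuclei were counted after 5 days, and relative viability is the treated-to-vehicle ratio of nuclei counts. Values are medians of duplicate plates.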

Bortezomib + Decitabine = compound: CC(C)C[C@H](NC(=O)[C@H](Cc1ccccc1)NC(=O)c1cnccn1)B(O)O [Bortezomib] + Nc1ncn([C@H]2C[C@H](O)[C@@H](CO)O2)c(=O)n1 [Decitabine] (partner 2 µM)
Summary of the method: as §1

Obatoclax + Linsitinib = compound: COC1=CC(c2cc3ccccc3[nH]2)=N/C1=C\c1[nH]c(C)cc1C [Obatoclax] + C[C@]1(O)C[C@@H](c2nc(-c3ccc4ccc(-c5ccccc5)nc4c3)c3c(N)nccn32)C1 [Linsitinib] (partner 1 µM)
Summary of the method: as §1

Obatoclax + OSI-027 = compound: COC1=CC(c2cc3ccccc3[nH]2)=N/C1=C\c1[nH]c(C)cc1C [Obatoclax] + COc1cccc2cc(-c3nc([C@H]4CC[C@H](C(=O)O)CC4)n4ncnc(N)c34)[nH]c12 [OSI-027] (partner 0.5 µM)
Summary of the method: as §1

Row | Cell Line | relative viability (Bortezomib + Crizotinib; first compound 0.0002 µM) | relative viability (Bortezomib + Crizotinib; first compound 0.000632 µM) | relative viability (Bortezomib + Crizotinib; first compound 0.002 µM) | relative viability (Bortezomib + Crizotinib; first compound 0.006325 µM) | relative viability (Bortezomib + Crizotinib; first compound 0.02 µM) | relative viability (Bortezomib + Decitabine; first compound 0.0002 µM) | relative viability (Bortezomib + Decitabine; first compound 0.000632 µM) | relative viability (Bortezomib + Decitabine; first compound 0.002 µM) | relative viability (Bortezomib + Decitabine; first compound 0.006325 µM) | relative viability (Bortezomib + Decitabine; first compound 0.02 µM) | relative viability (Obatoclax + Linsitinib; first compound 0.01 µM) | relative viability (Obatoclax + Linsitinib; first compound 0.03162 µM) | relative viability (Obatoclax + Linsitinib; first compound 0.1 µM) | relative viability (Obatoclax + Linsitinib; first compound 0.3162 µM) | relative viability (Obatoclax + Linsitinib; first compound 1 µM) | relative viability (Obatoclax + OSI-027; first compound 0.01 µM) | relative viability (Obatoclax + OSI-027; first compound 0.03162 µM) | relative viability (Obatoclax + OSI-027; first compound 0.1 µM) | relative viability (Obatoclax + OSI-027; first compound 0.3162 µM) | relative viability (Obatoclax + OSI-027; first compound 1 µM)
1 | NCI-H3122 | 0.252 | 0.264 | 0.287 | 0.275 | 0.182 | 0.439 | 0.438 | 0.403 | 0.34 | 0.129 | 1.01 | 1.02 | 1.04 | 0.97 | 1.01 | 0.931 | 0.976 | 1.02 | 0.859 | 0.2
2 | PC-3 [JPC-3] | 1.01 | 0.98 | 0.726 | 0.934 | 0.133 | 0.815 | 0.84 | 0.428 | 0.301 | 0.237 | 0.947 | 0.936 | 0.963 | 0.989 | 0.898 | 0.808 | 0.728 | 0.791 | 0.731 | 0.752
3 | PC-14 | 0.935 | 0.935 | 0.947 | 0.359 | 0.0821 | 0.254 | 0.234 | 0.195 | 0.0599 | 0.0702 | 0.911 | 1.01 | 0.892 | 0.902 | 0.58 | 0.729 | 0.834 | 0.67 | 0.519 | 0.0675
4 | RERF-LC-KJ | 0.846 | 0.85 | 0.84 | 0.271 | 0.178 | 0.663 | 0.707 | 0.531 | 0.226 | 0.219 | 0.884 | 0.947 | 0.871 | 0.868 | 0.808 | 0.578 | 0.554 | 0.553 | 0.475 | 0.268
5 | SK-LU-1 | 0.793 | 0.912 | 0.626 | 0.173 | 0.136 | 0.499 | 0.644 | 0.533 | 0.245 | 0.174 | 1.18 | 1.17 | 0.834 | 0.496 | 0.419 | 0.366 | 0.315 | 0.273 | 0.205 | 0.166
6 | SK-MES-1 | 0.967 | 0.994 | 0.935 | 0.261 | 0.161 | 0.444 | 0.411 | 0.379 | 0.194 | 0.156 | 0.991 | 1.1 | 1.09 | 0.98 | 0.687 | 0.607 | 0.611 | 0.529 | 0.456 | 0.179
7 | SW 1573 | 0.851 | 0.82 | 0.631 | 0.181 | 0.0539 | 0.366 | 0.573 | 0.229 | 0.0617 | 0.0363 | 0.768 | 0.832 | 0.803 | 0.801 | 0.81 | 0.612 | 0.559 | 0.662 | 0.219 | 0.115
8 | UMC-11 | 0.503 | 0.63 | 0.591 | 0.225 | 0.0917 | 0.628 | 0.713 | 0.483 | 0.326 | 0.203 | 1.04 | 0.875 | 0.981 | 0.81 | 0.885 | 0.465 | 0.504 | 0.48 | 0.379 | 0.285
